# Measurements reported in patent US5169852A, “Method of suppressing appetite by administration of tetrahydro-beta-carboline derivatives” (priority 1990, dated 1992).
# “Also recorded” adds a separate entry of the source. Where a name gives a salt, the structure may show the parent alone. Read-outs that look alike come from different tables or passages of the source.
# Experiments:
# [1] = Reduction of food intake in fasted rats, intraperitoneal (IC50 from dose-response curve); type: in vivo, rat; settings: ip
# Excerpt: The measured food intake was plotted as a function of the natural logarithm of the drug concentration (ln(Dose)) given to the animal for each of the compounds listed above. A dose response curve of the functional form: Intake =α+(1-α)/[1+exp(β- ln(Dose))]was fit to each of the data sets using the NONLIN feature of the Systat™ statistical analysis software package for the Macintosh™ (Systat, Evanston, Il).
# [2] = Partial appetite suppression: food intake over one hour vs dose (FIG. 5); type: in vivo; settings: rat
# Procedure: Adult male rats weighing between 250 and 300 g were acclimated to laboratory conditions for a period of 4-5 days, during which they were allowed unrestricted access to food (Ralston-Purina #5001M) and water. All animals were housed in individual cages. The animal facility was maintained on a 12:12 hr light-dark schedule at 22° C.
# Fasted animals were sorted into groups of 10-12 each by weight and baseline food intake. Each was then given saline containing 0-32 mg/Kg of a compound of the invention (or THBC) by intraperitoneal injection. After 20 minutes, animals were allowed access to food and water. Cumulative food intake was measured at 1 hour post-injection.
# Reduction in food intake over one hour was measured against the dose per unit body weight for THBC and compound 14. The results are shown in FIG. 5A, which compares compound 14 with THBC.
# [3] = tested on: brain tryptamine binding sites; settings: cited from earlier work
# [4] = tested on: brain imipramine binding sites; settings: cited from earlier work
# [5] = tested on: brain 5-hydroxytryptamine (5-HT) binding sites; settings: cited from earlier work
# [6] = tested on: brain spiperone binding sites; settings: cited from earlier work
# 5 HT efflux = settings: brain slices; cited from earlier work
# 5-HT uptake = settings: brain synaptosomes; cited from earlier work
# [7] = tested on: 5-HT oxidative deamination; settings: cited from earlier work
# [8] = cited from earlier work
# [9] = rats; cited from earlier work
# [10] = systemic, rodents; cited from earlier work
# [11] = parenteral, rats; cited from earlier work
# [12] = cited from earlier work; remark: listed apart in the source
# [13] = cited from earlier work; for effect on feeding (hyperphagic / anorectic): S. Cooper
# benzodiazepine receptors = settings: Skolnick; Robertson; cited from earlier work
# [14] = human, in vivo; cited from earlier work
# [15] = rat, intraperitoneal, 1 hour food intake, Table 2, read-out: Activity LOG (IC50), reduction of food intake (converted)
# [16] = rat, intraperitoneal, 1 hour food intake, Table 3, read-out: Log (1/IC50) Measured (converted)
# [17] = Rattus norvegicus, 1 h, read-out: Activity LOG (IC50), reduction of food intake
# [18] = Rattus norvegicus, 1 h, read-out: Log (1/IC50) Measured
compound,measurement,setting,value
"CCCCCn1c2c(c3cc(C)ccc31)CCNC2 [Compound 21, 6-Methyl-9-(n-pentyl)-1,2,3,4-tetrahydro-β-carboline hydrochloride]",ED50,[1]; [15],0.0589 µmol/kg
same,ED50,[1]; [16],17 µmol/kg
CCC1Cc2c([nH]c3ccccc23)CN1 (stereo not shown) [Compound 13],ED50,[1]; [16],77.6 µmol/kg
O=C(O)C1Cc2c([nH]c3ccc(O)cc23)CN1 (stereo not shown) [Compound 15],ED50,[1]; [16],91.2 µmol/kg
"Cc1cccc2c3c([nH]c12)CNCC3 [Compound 10, 8-methyl-1,2,3,4-tetrahydro-β-carboline hydrochloride]",ED50,[1]; [15],0.0162 µmol/kg
same,ED50,[1]; [16],61.7 µmol/kg
"CC(=O)N1CCc2c(n(Cc3ccccc3)c3ccccc23)C1 [Compound 27, 2 acetyl-9 benzyl-1,2,3,4-tetrahydro-β-carboline]",ED50,[1]; [15],0.0339 µmol/kg
same,ED50,[1]; [16],29.5 µmol/kg
O=Cn1c2c(c3ccccc31)CCNC2 [Compound 18],ED50,[1]; [16],91.2 µmol/kg
"c1ccc2c3c([nH]c2c1)CNCC3 [Compound 1, 1,2,3,4-tetrahydro-β-carboline]",ED50,[1]; [17],0.0145 µmol/kg
same,ED50,[1]; [18],69.2 µmol/kg
same,feeding depression / dose-response behavior,[2],"little feeding depression at low dosage, but relatively complete feeding depression at higher dosage"
same,competition for brain tryptamine binding sites,[3],low affinity
same,competition for brain imipramine binding sites,[4],low affinity
same,competition for brain 5-HT binding sites,[5],low affinity
same,competition for brain spiperone binding sites,[6],low affinity
same,depolarization-induced 5 HT efflux,5 HT efflux,enhances
same,inhibition of 5-HT uptake,5-HT uptake,weakly inhibits
same,inhibition of 5-HT oxidative deamination,[7],weakly inhibits
same,behavioral syndrome at high doses,[8]; high doses,"hyperactivity, forepaw treating, body weaving, and circling"
same,behavioral effects,[8]; parenteral,"suppresses locomotion, exploratory activity, and conflict behavior, impairs performance on operantly conditioned learning and memory tasks, reduces seizure susceptibility, prolongs barbiturate sedation, and antagonizes specific drug induced stereotypic behavior"
same,"behavioral effects, intraventricular",[9],"reduce motor activity, induce apparent anxiety, and increase voluntary ethanol consumption"
same,plasma corticosterone,[10],elevated
same,plasma prolactin levels,[10],dose-dependent elevation
same,serum luteinizing hormone levels,[10],decreased
same,dose eliciting significant hypothermia,[11],≥ 6.25 mg/kg
same,deaths,[12]; 49 mg/Kg/day or greater,6 out of the 24
same,treatment day by which food consumption returns to normal (tolerance),"[12]; daily oral, in excess of 49 mg/Kg",twelfth
same,"appetite, smaller daily doses","[12]; daily oral, less than 30 mg/Kg",do not significantly alter appetite
same,"food intake, daily oral administration","[12]; in excess of 49 mg/Kg daily, after two consecutive days",significant reductions in food intake
CCOC(=O)c1ncc2[nH]c3ccc(OCc4ccccc4)cc3c2c1COC [ethyl 6-benzyloxy-4-meth-oxymethyl-β-carboline-3-carboxylate],effect on feeding (hyperphagic / anorectic),[13],hyperphagic
CNC(=O)c1cc2c(cn1)[nH]c1ccccc12 [β-carboline-3-carboxylic acid methyl amide],food consumption by partially sated rats,"[13]; 10.0 mg/Kg, intraperitoneal",30 % of control
same,effect on feeding (hyperphagic / anorectic),[13],anorectic
"COc1ccc2[nH]c3c(c2c1)CCNC3 [Compound 2, 6-methoxy-1,2,3,4-tetrahydro-β-carboline]",ED50,[1]; [17],0.0162 µmol/kg
same,ED50,[1]; [18],61.7 µmol/kg
CCOC(=O)c1ncc2[nH]c3cccc(OCc4ccccc4)c3c2c1COC [ethyl-5-benzyloxy-4-methoxymethyl β-carboline-3-carboxylate],effect on feeding (hyperphagic / anorectic),[13],hyperphagic
ethyl -isopropoxy-4-methyl-β-carboline-3-carboxylate,effect on feeding (hyperphagic / anorectic),[13],hyperphagic
"CCn1c2c(c3ccccc31)CCNC2 [Compound 20, 9-ethyl-1,2,3,4-tetrahydro-β-carboline hydrochloride]",ED50,[1]; [15],0.0309 µmol/kg
same,ED50,[1]; [16],32.4 µmol/kg
Cc1ccc2[nH]c3c(c2c1)CCNC3 [Compound 12],ED50,[1]; [16],30.9 µmol/kg
"CCCCCn1c2c(c3ccccc31)CCNC2 [Compound 23, 9-(n-pentyl)-1,2,3,4-tetrahydro-β-carboline hydrochloride]",ED50,[1]; [15],0.055 µmol/kg
same,ED50,[1]; [16],18.2 µmol/kg
"Fc1ccc2c3c([nH]c2c1)CNCC3 [Compound 5, 7-fluoro-1,2,3,4-tetrahydro-β-carboline hydrochloride]",ED50,[1]; [17],0.0214 µmol/kg
same,ED50,[1]; [18],46.8 µmol/kg
CC1NCCc2c1[nH]c1ccccc21 (stereo not shown) [Compound 7],ED50,[1]; [18],100 µmol/kg
"COC(=O)C1Cc2c([nH]c3ccccc23)CN1 (stereo not drawn) [3-carbomethoxy-1,2,3,4-tetrahydro-β-carboline]",binding affinity to benzodiazepine receptors,benzodiazepine receptors,very low affinity
Cc1cccc2[nH]c3c(c12)CCNC3 [Compound 17],ED50,[1]; [16],30.2 µmol/kg
"O=C(O)C1Cc2c([nH]c3ccccc23)CN1 (racemic) [Compound 14, (±) 3-carboxyl-1,2,3,4-tetrahydro-β-carboline]",ED50,[1]; [15],0.0331 µmol/kg
same,ED50,[1]; [16],30.2 µmol/kg
same,feeding depression / dose-response behavior,[2],will not depress feeding behavior over a comparatively large feeding range; also recorded: moderate feeding depression over a broad dosage range
"Clc1ccc2[nH]c3c(c2c1)CCNC3 [Compound 8, 6-chloro-1,2,3,4-tetrahydro-β-carboline hydrochloride]",ED50,[1]; [17],0.0347 µmol/kg
same,ED50,[1]; [18],28.8 µmol/kg
"Fc1ccc2[nH]c3c(c2c1)CCNC3 [Compound 4, 6-fluoro-1,2,3,4 tetrahydro-β-carboline hydrochloride]",ED50,[1]; [17],0.0257 µmol/kg
same,ED50,[1]; [18],38.9 µmol/kg
"c1ccc(Cn2c3c(c4ccccc42)CCNC3)cc1 [Compound 19, 9 benzyl-1,2,3,4-tetrahydro-β-carboline hydro-chloride]",ED50,[1]; [15],0.0447 µmol/kg
same,ED50,[1]; [16],22.4 µmol/kg
CCNC(C)Cc1cccc(C(F)(F)F)c1 (stereo not shown) [fenfluramine],clinical efficacy,[14],inadequate clinical efficacy
same,patient complaints (side effects),[14],drowsiness and headache
"CC(=O)N1CCc2c([nH]c3ccccc23)C1 [Compound 16, 2-acetyl-1,2,3,4-tetrahydro-β-carboline]",ED50,[1]; [15],0.0162 µmol/kg
same,ED50,[1]; [16],61.7 µmol/kg
same,feeding depression / dose-response behavior,[2],The same behavior was observed
